Key:
[1] = from cited literature (Storlien et al., Brindley et al., Carr et al., Duhault et al., Pestell et al.); cited from earlier work
rat âgé = experiment: Chronic treatment of the aged rat (insulin resistance, hyperinsulinaemia, raised blood pressure): blood pressure; assay type: in vivo
Description: 2- Etude du traitement chronique du rat âgé
Au cours du vieillissement, une insulino-résistance apparaît, accompagnée d'une hyperinsulinémie et d'une élévation de la pression artérielle (cf tableau 1 ci-après).
Le traitement par la d-fenfluramine à la dose de 2,5 mg/kg 2 fois par jour pendant 3 semaines, diminue la pression artérielle du rat âgé de 12.10² Pa sans modifier celle du rat jeune.

réactivité vasculaire = experiment: Vascular reactivity after chronic treatment of the aged rat: maximum contraction to serotonin and ADP; assay type: in vivo; settings: 12-month rats treated with d-fenfluramine
Description: Cet effet est relié à une normalisation de la réactivité vasculaire, en particulier à la sérotonine et à l'ADP (cf tableau 2 ci-après).

CCNC(C)Cc1cccc(C(F)(F)F)c1 (racemic) [dl fenfluramine]
insulino-résistance et hyperinsulinémie basale [1]: capables de réduire l'insulino-résistance et l'hyperinsulinémie basale

CC(Cc1cccc(C(F)(F)F)c1)NCCOC(=O)c1ccccc1 (centres unmarked) [benfluorex]
Blood pressure and vascular reactivity of the aged rat (results compared with d-fenfluramine) (rat âgé; 50 mg/kg, 5 times per day): résultats analogues

CCN[C@@H](C)Cc1cccc(C(F)(F)F)c1 [d-fenfluramine]
pression artérielle du rat jeune (rat âgé; young rat, 2,5 mg/kg twice daily for 3 weeks): sans modifier
Maximum de contraction Sérotonine (réactivité vasculaire; expressed relative to KCl = 100 % contraction): 145%
Maximum de contraction ADP (réactivité vasculaire; expressed relative to phenylephrine = 100 % contraction): 66%

Source: patent EP0545805A1, “Use of D-fenfluramine and fenfluramine derivatives in the treatment of hypertension in insulin-resistant patients” (ADIR ET COMPAGNIE, priority 1991, dated 1993)
